Measured values taken from patent US10694746B2, “Fungicidal composition” (JIANGSU HUIFENG BIO AGRICULTURE CO., LTD., priority 2016, dated 2020).
Values after ≈ are worked out from the molar mass of the structure shown.

Columns and labels:
Format in all cases: in vivo
apple anthracnose = experiment: Toxicity test of BBIT combined with mancozeb on apple anthracnose (bioassay); details: for ATI (actual toxicity index): (EC50 of standard/EC50 of test agent)*100, standard BBIT; for EC50: apple anthracnose
cucumber downy mildew = experiment: Toxicity test of BIT combined with mancozeb on cucumber downy mildew (bioassay); details: for ATI (actual toxicity index): (EC50 of standard/EC50 of test agent)*100, standard BIT; for EC50: cucumber downy mildew
potato late blight = details: for ATI (actual toxicity index): (EC50 of standard/EC50 of test agent)*100, standard MBIT; for EC50: potato late blight

Compound	ATI (actual toxicity index) (apple anthracnose)	EC50 (apple anthracnose)	ATI (actual toxicity index) (cucumber downy mildew)	EC50 (cucumber downy mildew)	ATI (actual toxicity index) (potato late blight)	EC50 (potato late blight)
CCCCn1sc2ccccc2c1=O [BBIT, 2-n-butyl-1,2-benzisothiazolin-3-one]	100	19.09 µg/mL				
O=c1[nH]sc2ccccc12 [BIT, 1,2-benzisothiazolin-3-one]			100.00	13.5 µg/mL		
Cn1sc2ccccc2c1=O [MBIT, 2-methyl-1,2-benzisothiazolin-3-one]					100.00	14.81 µg/mL (≈ 89.6 µM)
mancozeb	20.67	92.36 µg/mL	17.96	75.17 µg/mL	21.69	68.27 µg/mL
